# Measured values taken from paper PMC6691788, “Design and synthesis of phthalazine-based compounds as potent anticancer agents with potential antiangiogenic activity via VEGFR-2 inhibition” (Journal of Enzyme Inhibition and Medicinal Chemistry, 2019).
# Read-outs that look alike come from different tables or passages of the source.
# Tests used:
# IGROV1 = test: NCI 60 cell panel SRB screen; format: cell-based; settings: Homo sapiens, IGROV-1; for GI50 / IC (TGI) / CC50: IGROV1, 5 log dose; for CC50: 48 h, read-out: LC50 (the source's name); for activity at 10 µM: IGROV1, single dose 10 μM, read-out: percent cell growth promotion
# SNB-19 = test: NCI 60 cell panel SRB screen; format: cell-based; settings: Homo sapiens; for GI50 / IC (TGI) / CC50: SNB-19, 5 log dose; for CC50: 48 h, read-out: LC50 (the source's name); for activity at 10 µM: SNB-19, single dose 10 μM, read-out: percent cell growth promotion
# SNB-75 = test: NCI 60 cell panel SRB screen; format: cell-based; settings: Homo sapiens; for GI50 / IC (TGI) / LC50 (concentration killing 50% of cells): SNB-75, 5 log dose; for LC50 (concentration killing 50% of cells): 48 h; for activity at 10 µM: SNB-75, single dose 10 μM, read-out: percent cell growth promotion
# SK-OV-3 = test: NCI 60 cell panel SRB screen; format: cell-based; settings: Homo sapiens; for GI50 / IC (TGI) / CC50: SK-OV-3, 5 log dose; for CC50: 48 h, read-out: LC50 (the source's name); for activity at 10 µM: SK-OV-3, single dose 10 μM, read-out: percent cell growth promotion
# PC-3 = test: NCI 60 cell panel SRB screen; format: cell-based; settings: Homo sapiens; for GI50 / IC (TGI) / CC50: PC-3, 5 log dose; for CC50: 48 h, read-out: LC50 (the source's name); for activity at 10 µM: PC-3, single dose 10 μM, read-out: percent cell growth promotion
# NCI-H226 = test: NCI 60 cell panel SRB screen; format: cell-based; settings: Homo sapiens; for GI50 / IC (TGI) / CC50: NCI-H226, 5 log dose; for CC50: 48 h, read-out: LC50 (the source's name); for activity at 10 µM: NCI-H226, single dose 10 μM, read-out: percent cell growth promotion
# full NCI 60 cell panel = test: NCI 60 cell panel SRB screen, whole panel; format: cell-based, human; settings: Homo sapiens, 60 cell; for activity at 10 µM: mean over the panel, single dose 10 μM, read-out: Mean percent cell growth promotion; for inhibition at 10 µM: single dose 10 µM
# SK-MEL-28 = test: NCI 60 cell panel SRB screen; format: cell-based; settings: Homo sapiens; for GI50: SK-MEL-28; for IC (TGI): SK-MEL-28, read-out: TGI; for activity at 10 µM: SK-MEL-28, read-out: percent cell growth promotion; for CC50: SK-MEL-28, 5 log dose, 48 h, read-out: LC50 (the source's name)
# NCI-H460 = test: NCI 60 cell panel SRB screen; format: cell-based; settings: Homo sapiens; for GI50 / IC (TGI) / LC50 (concentration causing 50% cell kill): NCI-H460, 5 log dose; for LC50 (concentration causing 50% cell kill): 48 h; for activity at 10 µM: NCI-H460, single dose 10 μM, read-out: percent cell growth promotion
# T-47D = test: NCI 60 cell panel SRB screen; format: cell-based; settings: Homo sapiens, T47D; for IC (TGI): read-out: TGI; for activity at 10 µM: read-out: percent cell growth promotion; for CC50: T-47D, 5 log dose, 48 h, read-out: LC50 (the source's name)
# NCI/ADR-RES = test: NCI 60 cell panel SRB screen; format: cell-based; settings: Homo sapiens; for GI50 / IC (TGI) / CC50: 5 log dose; for CC50: 48 h, read-out: LC50 (the source's name); for activity at 10 µM: single dose 10 μM, read-out: percent cell growth promotion
# ACHN = test: NCI 60 cell panel SRB screen; format: cell-based; settings: Homo sapiens; for GI50 / IC (TGI) / CC50: 5 log dose; for CC50: 48 h, read-out: LC50 (the source's name); for activity at 10 µM: single dose 10 μM, read-out: percent cell growth promotion
# CAKI-1 = test: NCI 60 cell panel SRB screen; format: cell-based, human; settings: Homo sapiens; CAKI-1, single dose 10 μM; read-out: percent cell growth promotion
# OVCAR-5 = test: NCI 60 cell panel SRB screen; format: cell-based; settings: Homo sapiens; for GI50 / IC (TGI) / CC50: OVCAR-5, 5 log dose; for CC50: 48 h, read-out: LC50 (the source's name); for activity at 10 µM: OVCAR-5, single dose 10 μM, read-out: percent cell growth promotion
# HL-60(TB) = test: NCI 60 cell panel SRB screen; format: cell-based; settings: Homo sapiens; for GI50 / IC (TGI) / CC50: 5 log dose; for CC50: 48 h, read-out: LC50 (the source's name); for activity at 10 µM: single dose 10 μM, read-out: percent cell growth promotion
# U251 = test: NCI 60 cell panel SRB screen; format: cell-based; settings: Homo sapiens, U-251; for GI50 / IC (TGI) / CC50: U251, 5 log dose; for CC50: 48 h, read-out: LC50 (the source's name); for activity at 10 µM: U251, single dose 10 μM, read-out: percent cell growth promotion
# RXF 393 = test: NCI 60 cell panel SRB screen; format: cell-based; settings: Homo sapiens; for GI50 / IC (TGI) / CC50: RXF 393, 5 log dose; for CC50: 48 h, read-out: LC50 (the source's name); for activity at 10 µM: RXF 393, single dose 10 μM, read-out: percent cell growth promotion
# SN12C = test: NCI 60 cell panel SRB screen; format: cell-based; settings: Homo sapiens; for GI50 / IC (TGI) / CC50: 5 log dose; for CC50: 48 h, read-out: LC50 (the source's name); for activity at 10 µM: single dose 10 μM, read-out: percent cell growth promotion
# NCI-H23 = test: NCI 60 cell panel SRB screen; format: cell-based; settings: Homo sapiens; for GI50 / IC (TGI) / CC50: NCI-H23, 5 log dose; for CC50: 48 h, read-out: LC50 (the source's name); for activity at 10 µM: NCI-H23, single dose 10 μM, read-out: percent cell growth promotion
# [1] = read-out: cell growth inhibition against various cell lines
compound,measurement,setting,value
"COc1cccc(NCc2nnc(Nc3ccc(Cl)cc3)c3ccccc23)c1 [Compound 16d, N-(4-Chlorophenyl)-4-((3-methoxyphenylamino)methyl)phthalazin-1-amine]",GI50,IGROV1,0.9 µM
same,IC (TGI),IGROV1,6.3 µM
same,CC50,IGROV1,> 25 µM
same,activity at 10 µM,IGROV1,1.51%
same,GI50,SNB-19,3.5 µM
same,IC (TGI),SNB-19,13 µM
same,CC50,SNB-19,> 25 µM
same,activity at 10 µM,SNB-19,17.8%
same,GI50,SNB-75,0.29 µM
same,IC (TGI),SNB-75,5.27 µM
same,LC50 (concentration killing 50% of cells),SNB-75,23.1 µM
same,activity at 10 µM,SNB-75,-6.06%
same,GI50,SK-OV-3,1.13 µM
same,IC (TGI),SK-OV-3,8.19 µM
same,CC50,SK-OV-3,> 25 µM
same,activity at 10 µM,SK-OV-3,-11.9%
same,GI50,PC-3,1.19 µM
same,IC (TGI),PC-3,9.33 µM
same,CC50,PC-3,> 25 µM
same,activity at 10 µM,PC-3,-13.6%
same,GI50,NCI-H226,0.95 µM
same,IC (TGI),NCI-H226,6.82 µM
same,CC50,NCI-H226,> 25 µM
same,activity at 10 µM,NCI-H226,-22.9%
same,activity at 10 µM,full NCI 60 cell panel,-16%
same,inhibition at 10 µM,"full NCI 60 cell panel; full panel, read-out: mean growth inhibition",116%
same,inhibition at 10 µM,full NCI 60 cell panel; [1],> 90%
same,GI50,SK-MEL-28,2.62 µM
same,IC (TGI),SK-MEL-28,6.17 µM
same,activity at 10 µM,SK-MEL-28,-16.1%
same,CC50,SK-MEL-28,14.5 µM
same,GI50,NCI-H460,2.69 µM
same,IC (TGI),NCI-H460,7.15 µM
same,LC50 (concentration causing 50% cell kill),NCI-H460,19 µM
same,activity at 10 µM,NCI-H460,0.1%
same,GI50,T-47D,0.64 µM
same,IC (TGI),T-47D,6.56 µM
same,activity at 10 µM,T-47D,-8.49%
same,CC50,T-47D,> 25 µM
same,GI50,NCI/ADR-RES,2.55 µM
same,IC (TGI),NCI/ADR-RES,> 25 µM
same,CC50,NCI/ADR-RES,> 25 µM
same,activity at 10 µM,NCI/ADR-RES,-5.42%
same,GI50,ACHN,1.56 µM
same,IC (TGI),ACHN,24.4 µM
same,CC50,ACHN,> 25 µM
same,activity at 10 µM,ACHN,-5.35%
same,activity at 10 µM,CAKI-1,9.01%
same,GI50,OVCAR-5,3.38 µM
same,IC (TGI),OVCAR-5,11.8 µM
same,CC50,OVCAR-5,> 25 µM
same,activity at 10 µM,OVCAR-5,8.44%
same,GI50,HL-60(TB),3.78 µM
same,IC (TGI),HL-60(TB),13.1 µM
same,CC50,HL-60(TB),> 25 µM
same,activity at 10 µM,HL-60(TB),-27.1%
same,GI50,U251,2.78 µM
same,IC (TGI),U251,6.54 µM
same,CC50,U251,> 25 µM
same,activity at 10 µM,U251,-56.2%
same,GI50,RXF 393,2.16 µM
same,IC (TGI),RXF 393,6.11 µM
same,CC50,RXF 393,15.9 µM
same,activity at 10 µM,RXF 393,-11.6%
same,GI50,SN12C,2.52 µM
same,IC (TGI),SN12C,11 µM
same,CC50,SN12C,> 25 µM
same,activity at 10 µM,SN12C,14.5%
same,GI50,NCI-H23,1.22 µM
same,IC (TGI),NCI-H23,6.74 µM
same,CC50,NCI-H23,24.6 µM
same,activity at 10 µM,NCI-H23,2.05%
"Clc1ccc(Nc2nnc(COc3ccccc3)c3ccccc23)cc1 [Compound 17a, N-(4-Chlorophenyl)-4-(phenoxymethyl)phthalazin-1-amine]",GI50,IGROV1,1.14 µM
same,IC (TGI),IGROV1,6.37 µM
same,CC50,IGROV1,> 25 µM
same,activity at 10 µM,IGROV1,16.1%
same,GI50,SNB-19,3.2 µM
same,IC (TGI),SNB-19,12 µM
same,CC50,SNB-19,> 25 µM
same,activity at 10 µM,SNB-19,21.9%
same,GI50,SNB-75,0.49 µM
same,IC (TGI),SNB-75,6.65 µM
same,LC50 (concentration killing 50% of cells),SNB-75,> 25 µM
same,activity at 10 µM,SNB-75,13.1%
same,GI50,SK-OV-3,2.38 µM
same,IC (TGI),SK-OV-3,9.96 µM
same,CC50,SK-OV-3,> 25 µM
same,activity at 10 µM,SK-OV-3,9.17%
same,GI50,PC-3,1.3 µM
same,IC (TGI),PC-3,10.1 µM
same,CC50,PC-3,> 25 µM
same,activity at 10 µM,PC-3,-0.2%
same,GI50,NCI-H226,1.56 µM
same,IC (TGI),NCI-H226,6.58 µM
same,CC50,NCI-H226,21.7 µM
same,activity at 10 µM,NCI-H226,1.78%
same,activity at 10 µM,full NCI 60 cell panel,-4.07%
same,inhibition at 10 µM,full NCI 60 cell panel; [1],> 90%
same,GI50,SK-MEL-28,2.84 µM
same,IC (TGI),SK-MEL-28,7.23 µM
same,activity at 10 µM,SK-MEL-28,4.73%
same,CC50,SK-MEL-28,18.4 µM
same,GI50,NCI-H460,2.7 µM
same,IC (TGI),NCI-H460,7.12 µM
same,LC50 (concentration causing 50% cell kill),NCI-H460,18.8 µM
same,activity at 10 µM,NCI-H460,3.1%
same,GI50,T-47D,0.88 µM
same,IC (TGI),T-47D,8.44 µM
same,activity at 10 µM,T-47D,-5.86%
same,CC50,T-47D,> 25 µM
same,GI50,NCI/ADR-RES,2.62 µM
same,IC (TGI),NCI/ADR-RES,16.6 µM
same,CC50,NCI/ADR-RES,> 25 µM
same,activity at 10 µM,NCI/ADR-RES,-1.13%
same,GI50,ACHN,2.35 µM
same,IC (TGI),ACHN,> 25 µM
same,CC50,ACHN,> 25 µM
same,activity at 10 µM,ACHN,3.37%
same,activity at 10 µM,CAKI-1,15.4%
same,GI50,OVCAR-5,3.88 µM
same,IC (TGI),OVCAR-5,15.4 µM
same,CC50,OVCAR-5,> 25 µM
same,activity at 10 µM,OVCAR-5,23.1%
same,GI50,HL-60(TB),3.56 µM
same,IC (TGI),HL-60(TB),11.9 µM
same,CC50,HL-60(TB),> 25 µM
same,activity at 10 µM,HL-60(TB),-15.7%
same,GI50,U251,1.24 µM
same,IC (TGI),U251,7.47 µM
same,CC50,U251,19.1 µM
same,activity at 10 µM,U251,-12.7%
same,GI50,RXF 393,1.01 µM
same,IC (TGI),RXF 393,4.97 µM
same,CC50,RXF 393,14.4 µM
same,activity at 10 µM,RXF 393,-5.93%
same,GI50,SN12C,2.12 µM
same,IC (TGI),SN12C,8.07 µM
same,CC50,SN12C,> 25 µM
same,activity at 10 µM,SN12C,17%
same,GI50,NCI-H23,1.56 µM
same,IC (TGI),NCI-H23,7.87 µM
same,CC50,NCI-H23,> 25 µM
same,activity at 10 µM,NCI-H23,4.18%
